{"source": "paper PMC3688238", "about": "“The effect of different dosing regimens of motesanib on the gallbladder: a randomized phase 1b study in patients with advanced solid tumors” (BMC Cancer, 2013)", "type_in_all_cases": "in vivo, human", "key": {"gallbladder [1]": {"system": "gallbladder", "assay": "Gallbladder size (volume) by ultrasound, independent central review", "conditions": "for Mean change in gallbladder volume after discontinuation of motesanib (95% CI): last on-treatment to last available off-treatment measurement; for Gallbladder volume, mean change from baseline (95% CI): ultrasound", "procedure": "(§1) Gallbladder volume was assessed by ultrasound after a ≥8 hours fast at screening (within 21 days prior to randomization) and before the motesanib morning dose on days 8 and 15 of cycle 1, on day 1 of cycles 2 and 3, every 6 weeks thereafter, and at the safety follow-up (30 to 33 days after the last dose). Ultrasound was performed weekly when motesanib was withheld and weekly for 4 weeks following treatment discontinuation. Gallbladder ultrasound measurements were assessed by independent central radiologic review (MedQIA, Los Angeles, CA, USA). Gallbladder ejection fraction was assessed by investigators or other study site personnel using CCK-HIDA at screening (within 21 days of randomization), on day 1 of cycle 2, day 1 of cycle 6 (±3 days), and at the safety follow-up. Study-specific training and standard operating procedures were supplied to all radiology technicians.\n(§2) The ultrasound and CCK-HIDA gallbladder analysis sets, which included all randomized patients who received ≥1 dose of motesanib and had baseline and ≥1 evaluable follow-up ultrasound or CCK-HIDA, respectively, were used for the principal analysis of endpoints related to gallbladder size and characteristics. For each dosing scheme, estimates for the mean and maximum change from baseline in gallbladder size (volume as measured by ultrasound) and function (ejection fraction as measured by CCK-HIDA scan) were calculated. Mean change from baseline was calculated by taking the difference between the baseline gallbladder measurement and the average gallbladder measurement observed during study treatment. The mean (95% CI) difference was then calculated across all patients for each treatment arm, and for the whole study population. Maximum change from baseline in gallbladder size or volume was calculated by taking the difference between the baseline gallbladder measurement and the maximum gallbladder measurement observed during study treatment. The mean (95% CI) maximum change from baseline was then calculated across all patients for each treatment arm, and for the whole study population. Reversibility of changes in gallbladder volume and ejection fraction were evaluated calculating changes between the last on-treatment measurement and the last available measurement following the discontinuation of motesanib. Covariates (treatment, age, sex, body mass index, and nonsteroidal anti-inflammatory drug [NSAID] use) were explored in a linear regression model for potential relationships with gallbladder volume. Objective response was assessed for the safety analysis set, including only patients with measureable disease at baseline."}, "gallbladder [2]": {"system": "gallbladder", "assay": "Gallbladder function (ejection fraction) by CCK-HIDA, investigator assessment", "conditions": "for Gallbladder ejection fraction, mean change from baseline (95% CI): CCK-HIDA", "procedure": "as §1, §2"}, "gallbladder [3]": {"system": "gallbladder", "assay": "Specific gallbladder findings per independent ultrasound review", "procedure": "as §1"}, "[4]": {"conditions": "Arm B, 75 mg BID 2 wk on/1 wk off, n = 9"}, "[5]": {"conditions": "Arm B, 75 mg BID 2 wk on/1 wk off, n = 11"}, "[6]": {"conditions": "Arm C, 75 mg BID 5 d on/2 d off, n = 8"}, "[7]": {"conditions": "Arm C, 75 mg BID 5 d on/2 d off, n = 11"}, "[8]": {"conditions": "Arm B, 75 mg BID 2 wk on/1 wk off, n = 3"}, "[9]": {"conditions": "Arm B, 75 mg BID 2 wk on/1 wk off, n = 10"}, "[10]": {"conditions": "Arm C, 75 mg BID 5 d on/2 d off, n = 2"}, "[11]": {"conditions": "Arm C, 75 mg BID 5 d on/2 d off, n = 10"}, "[12]": {"conditions": "Arm A, 125 mg QD, post baseline, n = 23"}, "[13]": {"conditions": "Arm A, 125 mg QD, post treatment, n = 16"}, "[14]": {"conditions": "Arm B, 75 mg BID 2 wk on/1 wk off, post baseline, n = 11"}, "[15]": {"conditions": "Arm B, 75 mg BID 2 wk on/1 wk off, post treatment, n = 9"}}}
{"smiles": "CC1(C)CNc2cc(NC(=O)c3cccnc3NCc3ccncc3)ccc21", "note": "[Motesanib]", "values": [{"measurement": "Mean change in gallbladder volume from baseline to last available off-treatment measurement (95% CI)", "setting": "gallbladder [1]; Arm A, 125 mg QD, n = 16", "result": "10.4 (−10.0 to 30.8) cc"}, {"measurement": "Mean change in gallbladder volume after discontinuation of motesanib (95% CI)", "setting": "gallbladder [1]; Arm A, 125 mg QD, n = 16", "result": "−8.5 (−38.8 to 21.7) cc"}, {"measurement": "Gallbladder volume, maximum change from baseline (95% CI)", "setting": "gallbladder [1]; Arm A, 125 mg QD, n = 23", "result": "45.6 (20.2–70.9) cc"}, {"measurement": "Gallbladder volume, mean change from baseline (95% CI)", "setting": "gallbladder [1]; Arm A, 125 mg QD, n = 23", "result": "17.7 (6.4–28.9) cc"}, {"measurement": "Mean change in gallbladder volume from baseline to last available off-treatment measurement (95% CI)", "setting": "gallbladder [1]; [4]", "result": "−14.4 (−31.1 to 2.4) cc"}, {"measurement": "Mean change in gallbladder volume after discontinuation of motesanib (95% CI)", "setting": "gallbladder [1]; [4]", "result": "−16.2 (−37.4 to 5.1) cc"}, {"measurement": "Gallbladder volume, maximum change from baseline (95% CI)", "setting": "gallbladder [1]; [5]", "result": "74.4 (41.3–107.4) cc"}, {"measurement": "Gallbladder volume, mean change from baseline (95% CI)", "setting": "gallbladder [1]; [5]", "result": "26.8 (11.5–42.1) cc"}, {"measurement": "Mean change in gallbladder volume from baseline to last available off-treatment measurement (95% CI)", "setting": "gallbladder [1]; [6]", "result": "7.1 (−28.9 to 43.0) cc"}, {"measurement": "Mean change in gallbladder volume after discontinuation of motesanib (95% CI)", "setting": "gallbladder [1]; [6]", "result": "−7.4 (−67.1 to 52.4) cc"}, {"measurement": "Gallbladder volume, maximum change from baseline (95% CI)", "setting": "gallbladder [1]; [7]", "result": "67.3 (30.8–103.8) cc"}, {"measurement": "Gallbladder volume, mean change from baseline (95% CI)", "setting": "gallbladder [1]; [7]", "result": "26.9 (8.8–45.1) cc"}, {"measurement": "Gallbladder volume change from baseline during treatment, median", "setting": "gallbladder [1]; across all patients", "result": 17.3, "unit": "cc"}, {"measurement": "Gallbladder volume change from baseline during treatment, range", "setting": "gallbladder [1]; across all patients", "result": "−43.3 to 83.2", "unit": "cc"}, {"measurement": "Gallbladder volume increase from baseline during treatment, mean", "setting": "gallbladder [1]; across all patients, from 38.6 cc at baseline", "result": 22.2, "unit": "cc"}, {"measurement": "Mean change in ejection fraction after discontinuation of motesanib (95% CI)", "setting": "gallbladder [2]; Arm A, 125 mg QD, n = 5", "result": "10.8 (−45.8 to 67.4) %"}, {"measurement": "Mean change in ejection fraction from baseline to last available off-treatment measurement (95% CI)", "setting": "gallbladder [2]; Arm A, 125 mg QD, n = 5", "result": "−16.6 (−53.3 to 20.1) %"}, {"measurement": "Gallbladder ejection fraction, maximum change from baseline (95% CI)", "setting": "gallbladder [2]; Arm A, 125 mg QD, n = 21", "result": "−30.1 (−46.4 to −13.7) %"}, {"measurement": "Gallbladder ejection fraction, mean change from baseline (95% CI)", "setting": "gallbladder [2]; Arm A, 125 mg QD, n = 21", "result": "−24.1 (−38.2 to −9.9) %"}, {"measurement": "Mean change in ejection fraction after discontinuation of motesanib (95% CI)", "setting": "gallbladder [2]; [8]", "result": "63.0 (24.0 to 102.0) %"}, {"measurement": "Mean change in ejection fraction from baseline to last available off-treatment measurement (95% CI)", "setting": "gallbladder [2]; [8]", "result": "7.7 (−3.8 to 19.1) %"}, {"measurement": "Gallbladder ejection fraction, maximum change from baseline (95% CI)", "setting": "gallbladder [2]; [9]", "result": "−26.5 (−45.0 to −8.0) %"}, {"measurement": "Gallbladder ejection fraction, mean change from baseline (95% CI)", "setting": "gallbladder [2]; [9]", "result": "−25.0 (−43.9 to −6.1) %"}, {"measurement": "Mean change in ejection fraction after discontinuation of motesanib (95% CI)", "setting": "gallbladder [2]; [10]", "result": "46.0 (−347.9 to 439.9) %"}, {"measurement": "Mean change in ejection fraction from baseline to last available off-treatment measurement (95% CI)", "setting": "gallbladder [2]; [10]", "result": "14.5 (−55.4 to 84.4) %"}, {"measurement": "Gallbladder ejection fraction, maximum change from baseline (95% CI)", "setting": "gallbladder [2]; [11]", "result": "−6.5 (−29.8 to 16.8) %"}, {"measurement": "Gallbladder ejection fraction, mean change from baseline (95% CI)", "setting": "gallbladder [2]; [11]", "result": "−3.3 (−25.0 to 18.4) %"}, {"measurement": "Gallbladder ejection fraction change from baseline, median", "setting": "gallbladder [2]; across all patients", "result": "−18.0", "unit": "%"}, {"measurement": "Gallbladder ejection fraction change from baseline, range", "setting": "gallbladder [2]; across all patients", "result": "−81% to 67"}, {"measurement": "Gallbladder ejection fraction decrease from baseline, mean", "setting": "gallbladder [2]; across all patients, from 61.3% at baseline", "result": 19.2, "unit": "%"}, {"measurement": "Incidence of biliary sludge", "setting": "gallbladder [3]; Arm A, 125 mg QD", "result": 39, "unit": "%"}, {"measurement": "Gallstones, patient incidence", "setting": "gallbladder [3]; Arm A, 125 mg QD, post baseline (any point during treatment), n = 23", "result": "4 (17) n (%)"}, {"measurement": "Common duct dilation, patient incidence", "setting": "gallbladder [3]; [12]", "result": "0 (0) n (%)"}, {"measurement": "Pericholecystic fluid, patient incidence", "setting": "gallbladder [3]; [12]", "result": "1 (4) n (%)"}, {"measurement": "Sludge, patient incidence", "setting": "gallbladder [3]; [12]", "result": "9 (39) n (%)"}, {"measurement": "Gallstones, patient incidence", "setting": "gallbladder [3]; Arm A, 125 mg QD, post treatment (last available off-treatment assessment), n = 16", "result": "3 (19) n (%)"}, {"measurement": "Common duct dilation, patient incidence", "setting": "gallbladder [3]; [13]", "result": "0 (0) n (%)"}, {"measurement": "Pericholecystic fluid, patient incidence", "setting": "gallbladder [3]; [13]", "result": "0 (0) n (%)"}, {"measurement": "Sludge, patient incidence", "setting": "gallbladder [3]; [13]", "result": "4 (25) n (%)"}, {"measurement": "Incidence of biliary sludge", "setting": "gallbladder [3]; Arm B, 75 mg BID 2 wk on/1 wk off", "result": 36, "unit": "%"}, {"measurement": "Common duct dilation, patient incidence", "setting": "gallbladder [3]; [14]", "result": "0 (0) n (%)"}, {"measurement": "Gallstones, patient incidence", "setting": "gallbladder [3]; [14]", "result": "2 (18) n (%)"}, {"measurement": "Pericholecystic fluid, patient incidence", "setting": "gallbladder [3]; [14]", "result": "1 (9) n (%)"}, {"measurement": "Sludge, patient incidence", "setting": "gallbladder [3]; [14]", "result": "4 (36) n (%)"}, {"measurement": "Common duct dilation, patient incidence", "setting": "gallbladder [3]; [15]", "result": "0 (0) n (%)"}, {"measurement": "Gallstones, patient incidence", "setting": "gallbladder [3]; [15]", "result": "2 (22) n (%)"}]}
